Here are results for three compounds from patent US20100150884A1, “Anticancer Agent to Be Combined with Telomelysin” (priority 2005, published 2010).

For one data set, the system named is H1299 tumor tissue. As to the kind of experiment: HE staining of tumor tissue after intratumoral administration. The class given is in vivo, nude mice. The note with it: Telomelysin in combination with docetaxel; six days after the final administration. The protocol:
(§1) H1299 was inoculated subcutaneously at the back of 5-week old nude mice. When the tumor reached 5-10 mm in size, Telomelysin was administered intratumorally. Six days after the final administration, tumor tissue and liver were stained with HE as described below. Briefly, tissue sections were prepared, deparaffinized and washed with water. Then, distilled water was fed to the tissue section. Hematoxylin solution was added thereto and left stationary for 20 minutes. Then, the section was rinsed with water lightly. The resultant section was fractionated with 1% hydrochloric acid/70% alcohol, followed by color development. Then, the tissue section was washed with water for 10 minutes, passed through 80% ethanol, and dipped in eosin solution for 10 minutes. Subsequently, the tissue section was washed with water lightly, dehydrated, cleared and mounted to thereby perform HE staining.

Another data set deals with H226Br cells. As to the kind of experiment: XTT assay, combined effect of Telomelysin and anticancer agent. The class given is cell-based, human. How it is done: (§2) Telomelysin was infected to the following various cancer cells cultured in vitro at the concentrations of 0 (Mock), 0.1 or 1 MOI (multiplicity of infection). The cells used were as follows.
(§3) Specifically, 1×10^3 cells from each of the above cell strains were plated in a 96-well plate. After 24 hours, cells were counted and the virus was added to the culture broth at a concentration of 0.1 MOI or 1 MOI.
(§4) On the next day, docetaxel was added to the virus-infected cell culture broth at various concentrations (control, 0.1 nM, 1.0 nM, 10.0 nM and 100.0 nM).
(§5) On day 5 of infection, XTT assay was performed using a kit (Roche Diagnostics). Briefly, the culture broth was removed from the plate. A reaction solution containing XTT reagent was prepared and added to the plate. Cells were cultured for about 4 hours. Then, absorbance was measured with a microtiter plate (ELISA) reader, and the number of viable cells was calculated to thereby confirm antitumor effect.

The test system of the next data set is H1299 cells. The data set is described as above. The note with it: low concentrations of docetaxel combined with Telomelysin 0.1 MOI; day 5 of infection. In kind it is cell-based, human. How it is done:
as §2, §3, §4, §5

The test system of the next data set is HepG2 cells. Described as above. In kind it is cell-based, human. The following applies: docetaxel combined with Telomelysin; day 5 of infection. The protocol:
as §2, §3, §4, §5

Another data set has as its system LNCaP cells. The data set is described as above. In kind it is cell-based, human. The following applies: docetaxel combined with Telomelysin; day 5 of infection. How it is done: as §2, §3, §4, §5
The test system of a further data set is T.Tn cells. Described as above. In kind it is cell-based, human. The protocol:
as §2, §3, §4, §5

For data set [1], the system named is H1299 lung cancer cell tumor. As to the kind of experiment: In vivo antitumor effect, H1299 subcutaneous tumor, tumor size. Further details: species or system nude mice. The note with it: combination: Telomelysin intratumoral 1×10^7 pfu and docetaxel 12.5 mg/kg intraperitoneal, three times. The protocol: H1299 was inoculated subcutaneously at the back of 5-week old nude mice. One, three and five days after the tumor reached 5-10 mm in size, Telomelysin was administered intratumorally at a dose of 1×10^7 pfu/50 μl/mouse and docetaxel was administered at a dose of 12.5 mg/kg intraperitoneally both three times in the total. As a control, PBS was administered intratumorally and intraperitoneally. Tumor size was measured in every three days.

In another data set the test system is tumor cells. In words: Cell cycle analysis with PI (propidium iodide) using flow cytometry. The class given is cell-based. The following applies: for sub G0/G1: after G2/M arrest; for cell cycle arrest: began 12 hours after administration. From the text:
The influence of the substance having an antitumor effect and the recombinant virus used in combination in the pharmaceutical composition of the present invention upon the cell cycle of target cells may be examined, for example, by analyzing cell cycle with a nuclear dye PI (propidium iodide) using flow cytometry.
As a result of cell death, cell membranes become unable to retain their states and nuclei are readily stained with a nuclear dye such as PI mentioned above. Therefore, DNA content and cell cycle can be judged from the results of nuclear staining with PI. Here, it should be note that when ratios of S phase and G2/M phase in cell cycle are high in tumor cells, the malignancy is judged to be high.
Cell cycle was analyzed with PI (propidium iodide) using flow cytometry.
(In general: A flow cytometer gives signals particle by particle.)

For data set [2], the system named is human lung cancer cell H1299 and human large bowel cancer cell SW620. As to the kind of experiment: Quantitative real-time PCR of E1A gene, proliferation/replication of Telomelysin. In kind it is cell-based. The note with it: Telomelysin 0.1 MOI in combination with docetaxel versus alone. The protocol:
How the proliferation of Telomelysin would be affected when an anticancer agent acting on microtubule is combined with Telomelysin was analyzed by quantitative real-time PCR.
Human lung cancer cell H1299 and human large bowel cancer cell SW620 were infected with Telomelysin at 0.1 MOI for 2 hours. Two hours thereafter, docetaxel was administered. At 12, 24, 36, 48 and 60 hours after the infection, cells were harvested. DNA contained in the cells and in the supernatant was extracted separately. Real-time PCR was performed using primers targeting the E1A gene carried by Telomelysin, to thereby analyze viral proliferation/replication quantitatively. Specifically, 2 μl of DNA extract was added to 18 μl of PCR solution. PCR was performed using E1A primers under the following conditions.
Composition of the PCR solution: • 1×LC FastStart DNA Master SYBR Green I • 3 mM MgCl2 • 0.5 μM each primer Reaction conditions: • 95° C., 10 min • (95° C., 10 sec; 60° C., 15 sec; 72° C., 8 sec)×40 cycles • 70° C., 15 sec • 40° C., 30 sec
(In general: Real-time PCR tracks product formation cycle by cycle.)

In the next data set the test system is liver. As to the kind of experiment: HE staining of liver after intratumoral administration. The note with it: Telomelysin in combination with docetaxel; six days after the final administration. In kind it is in vivo, nude mice. The protocol:
as §1

The test system of data set [3] is various cancer cells cultured in vitro. As to the kind of experiment: XTT assay, combined effect of Telomelysin and anticancer agent, cell strains not named individually. In kind it is cell-based, human. The protocol: as §2, §3, §4, §5
XTT assays were performed in the same manner as described above using microtubule inhibitor vinorelbine and topoisomerase I inhibitor SN-38 (CPT-11 metabolite) as anticancer agents combined with Telomelysin.
Background: Tetrazolium dyes change colour on reduction, which living cells bring about.

[4] abbreviates: docetaxel combined with Telomelysin, day 5 of infection.
The mark [5] stands for this setting: Telomelysin and docetaxel in combination.

Regarding `CC(=O)O[C@@]12CO[C@@H]1C[C@H](O)[C@@]1(C)C(=O)[C@H](O)C3=C(C)[C@@H](OC(=O)[C@H](O)[C@@H](NC(=O)OC(C)(C)C)c4ccccc4)C[C@@](O)([C@@H](OC(=O)c4ccccc4)[C@H]21)C3(C)C` [docetaxel], the “hyaline degeneration of tumor cells” value in the data set on H1299 tumor tissue is on record as “observed in a wide range”. Besides, the “combined effect (antitumor effect, viable cells)” value (“combined effect” for short) in the data set on H226Br cells (setting [4]) is on record as “evident combined effect was not observed”; in the data set with H1299 cells, “especially remarkable”; in the data set with HepG2 cells it was “evident combined effect was not observed”; with LNCaP cells, “evident combined effect was not observed”; in the data set on T.Tn cells (setting [4]), “evident combined effect was not observed”. The “sensitivity of cell strain to docetaxel” value in the data set with H226Br cells (docetaxel itself) and with T.Tn cells (docetaxel itself) was “sensitivity to docetaxel itself” in each case. Also, in [1], the “antitumor effect (tumor size) compared to the control group and single use groups” value was “still more significant antitumor effect”. In addition, the apoptosis observed entry in the data set on tumor cells (setting [5]) and in the data set on tumor cells (docetaxel administered alone) was “apoptosis (DNA fragmentation)” in each case. Also, the “sub G0/G1” value with tumor cells (setting [5]) and with tumor cells (docetaxel administered alone) was “increased gradually” each time. The cell cycle arrest entry in the data set on tumor cells (setting [5]) and in the data set on tumor cells (docetaxel administered alone) was “G2/M arrest” throughout. Further, the “proliferation efficiency of Telomelysin diffused in supernatant (E1A DNA)” value in [2] is reported as “equal proliferation efficiency”. Besides, the “toxicity in liver tissue” value with liver is “Toxicity was not observed”.
With `CCC1=C[C@@H]2CN(C1)Cc1c([nH]c3ccccc13)[C@@](C(=O)OC)(c1cc3c(cc1OC)N(C)[C@H]1[C@@](O)(C(=O)OC)[C@H](OC(C)=O)[C@]4(CC)C=CCN5CC[C@]31[C@@H]54)C2` [vinorelbine], the “combined effect” value in data set [3] (vinorelbine combined with Telomelysin) is reported as “combined effect almost equal to that shown by docetaxel”.
In the case of `CCc1c2c(nc3ccc(O)cc13)-c1cc3c(c(=O)n1C2)COC(=O)[C@]3(O)CC` [SN-38], in data set [3] (SN-38 combined with Telomelysin, when the concentration of SN-38 was low), the “combined effect” value is recorded as “combined effect was observed”. In data set [3] (any of the cell strains tested), the “sensitivity of cell strains to SN-38” value is recorded as “has sensitivity”.
